Measured values taken from patent US20250304549A1, “HYDROXYAMIDE DERIVATIVE AND USE THEREOF” (SICHUAN HUIYU PHARMACEUTICAL CO., LTD., priority 2022, published 2025).
Counter-ions that a name gives are not always drawn.

What was measured:
LSD1 = LSD1 (Homo sapiens (Human), UniProt O60341); test: In vitro enzyme inhibition assay - LSD1 (HTRF); type: biochemical
pan-HDAC = test: In vitro enzyme inhibition assay - HDAC (HDAC-Glo I/II), pan-HDAC; type: biochemical
Method in brief: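 Eight compound concentrations (5-fold steps from a 1 mM DMSO stock) tested against pan-HDAC, HDAC1 and HDAC8 with HDAC-Glo I/II reagents, luminescence read-out. Percent inhibition normalized to no-inhibitor and no-enzyme wells; IC50 derived by four-parameter logistic fit.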

NCI-H1417 cells = test: In vitro cell inhibition assay - H1417 cell proliferation (CellTiter-Glo); type: cell-based; settings: Homo sapiens, NCI-H1417, H1417 small cell lung cancer cell proliferation
Method in brief: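 Cells exposed to 8 compound concentrations (5-fold dilutions) in BEGM with 10% FBS for 7 days at 37° C., 5% CO2. Viable cells measured by CellTiter-Glo luminescence; inhibition versus no-inhibitor and no-cell controls, IC50 fitted.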

NCI-H69 cells = test: In vitro cell inhibition assay - NCI-H69 cell proliferation (CellTiter-Glo); type: cell-based; settings: Homo sapiens, NCI-H69, H69 small cell lung cancer cell proliferation
Method in brief: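 7-day exposure at 37° C., 5% CO2 to compounds serially diluted 5-fold (8 concentrations) in RPMI-640 containing 20% FBS, after overnight attachment at 1×10^3 cells/well. Read-out: CellTiter-Glo luminescence (RLU); IC50 from curve fit of inhibition rate.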

NCI-H526 cells = test: In vitro cell inhibition assay - NCI-H526 cell proliferation (CellTiter-Glo); type: cell-based; settings: Homo sapiens, NCI-H526, 120 h, H526 small cell lung cancer cell proliferation, 5 days
Method: 6. In Vitro Cell Inhibition Assay—NCI-H526 Cell Proliferation
The inhibitory effect of the compounds on cell proliferation was assessed by detecting the number of viable cells using CellTiter-Glo® reagent. NCI-H526 cells in the logarithmic growth phase were collected and inoculated into transparent bottom 96-well plates at a density 1×10^3 cells per well with 100 μL of medium, and incubated at 37° C., 5% CO2 overnight. The compounds were sequentially diluted in a 5-fold concentration gradient with DMSO to obtain 8 different concentrations. These were then diluted with RPMI-640 (containing 10% FBS) cell culture medium to obtain the compound working solution (2×), which was added to the cell supernatant at 100 μL per well. The incubation continued for 5 days at 37° C., 5% CO2. The plate was then removed and equilibrated at room temperature (25° C.) along with the CellTiter-Glo® mixing reagent for 10-30 minutes; 80 μL of the culture medium was carefully aspirated from each well, and 80 μL of CellTiter-Glo® reagent was added. The cells were thoroughly mixed with the CellTiter-Glo® mixing reagent using a microplate shaker for 2 min. and then incubated at room temperature for 10 min. The 96-well plate was subsequently placed on a multifunctional microplate reader to record the Luminescence values (RLU).
The inhibition rate was calculated using the following formula: […]
Note: ‘Negative’ refers to the group without inhibitors; ‘Blank’ refers to the group without cells.
The IC50 value was determined by fitting the inhibition rate by GraphPad Prism software.

HDAC8 = HDAC8 (Homo sapiens (Human), UniProt Q9BY41); test: In vitro enzyme inhibition assay - HDAC (HDAC-Glo I/II), HDAC8; type: biochemical; settings: read-out: HDAC IC50 (nM) HDAC 8
Method: 2. In Vitro Enzyme Inhibition Assay—HDAC
The effect of the compound on the enzymatic activity of pan-HDAC and two isoforms (HDAC1 and HDAC8) was examined using the HDAC-Glo I/II Assay and Screening System assay to assess the level of inhibition of HDAC protease activity and selectivity in each isoform. The proteins and detection reagents were from the HDAC-Glo™ I/II Assay and Screening System (Promega). A 1 mM stock solution of the compound was prepared in DMSO and diluted in a 5-fold gradient to create a series of 8 concentrations, and a specific volume of the highest concentration was diluted 25 times with HDAC Buffer to obtain 4× working solution of the compound. […] The 384-well plate was then read on a multifunctional microplate reader, with the Luminescence channel selected to record Luminescence values (RLU). The inhibition rate was calculated using the following formula: […]
Note: ‘Negative’ refers to the group without the inhibitor; ‘Blank’ refers to the group without the enzyme.
The IC50 value was calculated by fitting the inhibition rate by GraphPad Prism software, employing log (inhibitor) vs. response-Variable Slope (four parameters) model.

Sequence of HDAC8 (Q9BY41 whole entry): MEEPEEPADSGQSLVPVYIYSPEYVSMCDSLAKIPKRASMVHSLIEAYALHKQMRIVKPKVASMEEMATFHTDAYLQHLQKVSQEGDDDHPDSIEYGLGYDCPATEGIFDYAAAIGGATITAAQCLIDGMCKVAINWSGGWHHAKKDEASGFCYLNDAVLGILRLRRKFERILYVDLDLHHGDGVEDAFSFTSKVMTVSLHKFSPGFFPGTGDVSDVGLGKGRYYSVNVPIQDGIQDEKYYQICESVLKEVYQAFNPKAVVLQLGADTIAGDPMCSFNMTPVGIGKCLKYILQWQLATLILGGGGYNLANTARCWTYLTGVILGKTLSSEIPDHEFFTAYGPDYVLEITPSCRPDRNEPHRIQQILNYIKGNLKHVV

Row | IC50 (LSD1) | IC50 (pan-HDAC) | IC50 (NCI-H1417 cells) | IC50 (NCI-H69 cells) | IC50 (NCI-H526 cells) | IC50 (HDAC8) | Compound
1 | 1.1 nM | 0.86 nM | 1.26 nM | 2.74 nM | 11.7 nM |  | COc1ccc(-c2cnc(N3CCC(NCc4ccc(/C=C/C(=O)NO)cc4)CC3)c(C#N)c2-c2cnc(C#N)c(F)c2)cc1O [Example 249, (E)-3-(4-(((1-(3′,6-Dicyano-5-fluoro-5′-(3-hydroxy-4-methoxyphenyl)-[3,4′-bipyridin]-2′-yl)piperidin-4-yl)amino)methyl)phenyl)-N-hydroxyacrylamide formate]
2 | 1.41 nM | 0.3 nM | 1.05 nM | 1.81 nM | 2.09 nM |  | COc1ccc(-c2cnc(N3CCC(NCc4ccc(/C=C/C(=O)NO)c(F)c4)CC3)c(C#N)c2-c2ccc(C#N)nc2)cc1O [Example 258, (E)-3-(4-(((1-(3′,6-Dicyano-5′-(3-hydroxy-4-methoxyphenyl)-[3,4′-bipyridin]-2′-yl)piperidin-4-yl)amino)methyl)-2-fluorophenyl)-N-hydroxyacrylamide formate]
3 | 10.2 nM | 0.45 nM | 5.09 nM | 7.2 nM | 5.85 nM |  | COc1cc(F)c(-c2cnc(N3CCC(NCc4ccc(/C=C/C(=O)NO)cc4)CC3)c(OC)c2-c2ccc(C#N)nc2)cc1O [Example 265, (E)-3-(4-(((1-(6-Cyano-5′-(2-fluoro-5-hydroxy-4-methoxyphenyl)-3′-methoxy-[3,4′-bipyridin]-2′-yl)piperidin-4-yl)amino)methyl)phenyl)-N-hydroxyacrylamide formate]
4 | 1.01 nM | 4.37 nM | 3.23 nM | 4.56 nM | 16.8 nM |  | CC(C)(O)COc1ccc(-c2cnc(N3CCC(NC(C)(C)c4ccc(/C=C/C(=O)NO)cc4)CC3)c(C#N)c2-c2ccc(C#N)c(F)c2)cc1O [Example 223, (E)-3-(4-(2-((1-(3-Cyano-4-(4-cyano-3-fluorophenyl)-5-(3-hydroxy-4-(2-hydroxy-2-methylpropoxy)phenyl)pyridin-2-yl)piperidin-4-yl)amino)propan-2-yl)phenyl)-N-hydroxyacrylamide hydrochloride]
5 | 16.8 nM | 0.34 nM | 1.64 nM | 1.14 nM | 2.22 nM |  | COc1ccc(-c2cnc(N3CCC(NCc4ccc(/C=C/C(=O)NO)cc4)CC3)c(OC)c2-c2ccc(C#N)nc2)cc1O [Example 263, (E)-3-(4-(((1-(6-Cyano-5′-(3-hydroxy-4-methoxyphenyl)-3′-methoxy-[3,4′-bipyridin]-2′-yl)piperidin-4-yl)amino)methyl)phenyl)-N-hydroxyacrylamide formate]
6 | 0.62 nM |  | 4.96 nM | 38.5 nM | 35.3 nM |  | COc1ccc(-c2cnc(N3CCC(NCc4ccc(CCC(=O)NO)cc4)CC3)c(C#N)c2-c2ccc(C#N)c(F)c2)cc1O [Example 43, 3-(4-((1-(3-Cyano-4-(4-cyano-3-fluorophenyl)-5-(3-hydroxy-4-methoxyphenyl)pyridin-2-yl)piperidin-4-yl)amino)methyl)phenyl)-N-hydroxypropanamide formate]
7 | 1.34 nM | 7.35 nM | 5.23 nM | 65.6 nM |  | 250 nM | COc1c(O)cc(-c2cnc(N3CCC(NCc4ccc(/C=C/C(=O)NO)cc4)CC3)c(C#N)c2-c2ccc(C#N)c(F)c2)cc1F [Example 168, (E)-3-(4-(((1-(3-Cyano-4-(4-cyano-3-fluorophenyl)-5-(3-fluoro-5-hydroxy-4-methoxyphenyl)pyridin-2-yl)piperidin-4-yl)amino)methyl)phenyl)-N-hydroxyacrylamide formate]
8 | 0.04 nM | 6.55 nM | 1.16 nM | 53.8 nM |  | 41.5 nM | C/C(=C\C(=O)NO)c1ccc(CNC2CCN(c3ncc(-c4ccc(OCC(C)(C)O)c(O)c4)c(-c4ccc(C#N)c(F)c4)c3C#N)CC2)cc1 [Example 212, (E)-3-(4-(((1-(3-Cyano-4-(4-cyano-3-fluorophenyl)-5-(3-hydroxy-4-(2-hydroxy-2-methylpropoxy)phenyl)pyridin-2-yl)piperidin-4-yl)amino)methyl)phenyl)-N-hydroxybut-2-enamide hydrochloride]
9 | 0.31 nM | 2.04 nM | 10.7 nM | 189 nM |  | 83.5 nM | COc1ccc(-c2cnc(N3CCC(NCc4ccc(/C=C/C(=O)NO)cc4C)CC3)c(C#N)c2-c2ccc(C#N)c(F)c2)cc1O [Example 211, (E)-3-(4-(((1-(3-Cyano-4-(4-cyano-3-fluorophenyl)-5-(3-hydroxy-4-methoxyphenyl)pyridin-2-yl)piperidin-4-yl)amino)methyl)-3-methylphenyl)-N-hydroxyacrylamide formate]
10 | 0.65 nM | 588 nM | 4.21 nM | 906 nM |  | 1710 nM | COc1ccc(-c2cnc(N3CCC(NCc4ccc(/C=C/C(=O)NO)o4)CC3)c(C#N)c2-c2ccc(C#N)c(F)c2)cc1O [Example 178, (E)-3-(5-(((1-(3-Cyano-4-(4-cyano-3-fluorophenyl)-5-(3-hydroxy-4-methoxyphenyl)pyridin-2-yl)piperidin-4-yl)amino)methyl)furan-2-yl)-N-hydroxyacrylamide formate]
11 |  |  | 80.1 nM | 232 nM | 333 nM |  | COc1ccc(-c2cnc(N3CCN(CCc4ccc(/C=C/C(=O)NO)cc4)CC3)c(C#N)c2-c2ccc(C#N)c(F)c2)cc1O [Example 49, (E)-3-(4-(2-(4-(3-Cyano-4-(4-cyano-3-fluorophenyl)-5-(3-hydroxy-4-methoxyphenyl)pyridin-2-yl)piperazin-1-yl)ethyl)phenyl)-N-hydroxyacrylamide hydrochloride]
12 | 1.35 nM | 7.31 nM | 11.4 nM | 114 nM |  | 145 nM | COc1cc(OC)c(-c2cnc(N3CCC(NCc4ccc(/C=C/C(=O)NO)cc4)CC3)c(C#N)c2-c2ccc(C#N)c(F)c2)cc1O [Example 165, (E)-3-(4-(((1-(3-Cyano-4-(4-cyano-3-fluorophenyl)-5-(5-hydroxy-2,4-dimethoxyphenyl)pyridin-2-yl)piperidin-4-yl)amino)methyl)phenyl-N-hydroxyacrylamide hydrochloride]
13 | 9.46 nM | 13.8 nM | 15.4 nM | 145 nM |  | 578 nM | COc1ccc(-c2cnc(N3CCC(N)(CCc4ccc(/C=C/C(=O)NO)cc4)CC3)c(C#N)c2-c2ccc(C#N)c(F)c2)cc1O [Example 86, (E)-3-(4-(2-(4-amino-1-(3-cyano-4-(4-cyano-3-fluorophenyl)-5-(3-hydroxy-4-methoxyphenyl)pyridin-2-yl)piperidin-4-yl)ethyl)phenyl)-N-hydroxyacrylamide formate]
14 | 0.82 nM | 114 nM | 2.23 nM | 613 nM |  | 252 nM | COc1ccc(-c2cnc(N3CCC(NCc4ccc5sc(C(=O)NO)cc5c4)CC3)c(C#N)c2-c2ccc(C#N)c(F)c2)cc1O [Example 173, 5-(((1-(3-Cyano-4-(4-cyano-3-fluorophenyl)-5-(3-hydroxy-4-methoxyphenyl)pyridin-2-yl)piperidin-4-yl)amino)methyl)-N-hydroxybenzo[b] thiophene-2-carboxamide formate]

Row | Compound | IC50 (LSD1) | IC50 (pan-HDAC) | IC50 (NCI-H1417 cells) | IC50 (NCI-H69 cells) | IC50 (NCI-H526 cells) | IC50 (HDAC8)
15 | O=C(CCCCCCC(=O)Nc1ccccc1)NO [SAHA, Vorinostat, reference compound] |  |  |  |  | 397 nM | 
